Assays:
macrophages of humans = details: cited from earlier work
macrophages of mice = details: cited from earlier work
[1] = test system: interferon-treated murine peritoneal macrophages; assay: Nitrite/nitrate (nitrogen monoxide) release on stimulation of interferon-treated murine peritoneal macrophages; format: cell-based; details: mouse system
Protocol: The lipopeptide is prepared from Mycoplasma fermentans (for example PG18). The isolation of the lipopeptide from mycoplasma is carried out by the following known separation procedure (Mühlradt et al. in Biochemistry, 35 (1996) 7781-7786). • (i) Delipidation of the mycoplasma using chloroform/methanol. • (ii) Extraction of the delipidated mycoplasma using hot 25 mM octyl glucoside. • (iii) Dialysis of the detergent extract. • (iv) Concentration of the extract by lyophilisation. • (v) Reversed-phase chromatography on a C8 column using a water/2-propanol gradient. Detection of the biological activity is effected by measuring nitrite and nitrate as the secondary products of nitrogen monoxide, which is liberated on stimulation of interferon-treated murine peritoneal macrophages.
Immun., 59 (1991) 3962-3968 and Feng & Lo in Infect. Immun., 62 (1994) 3916-3921. Its half-maximum effective concentration (Max/2) is 20 pg/ml or 10^−11 M in the mouse system. That effective concentration is lower by a factor of from 10^2 to 10^3 than the corresponding known concentrations of similar natural or synthetic lipopeptides.

EC50 ([1]; read-out: half-maximum effective concentration (Max/2)): 0.01 nM
Substance: Dhc-GNN DES NIS FKE K: S-(2,3-dihydroxypropyl)-cysteine peptide from Mycoplasma fermentans with two ester-bonded long-chain fatty acids (C16:0 and C18:0/C18:1)
release of cytokines and prostaglandins from macrophages (macrophages of humans): stimulating macrophages of mice and humans to release cytokines and prostaglandins
release of cytokines and prostaglandins from macrophages (macrophages of mice): stimulating macrophages of mice and humans to release cytokines and prostaglandins
half-maximum effective concentration (Max/2) [1]: 20 pg/mL

Source: patent publication US7435790B2, “Dihydroxypropyl cysteine peptide and agent containing this peptide” (Helmholtz-Zentrum fuer Infektionsforschung GmbH, priority 1996, dated 2008)
